How the values were obtained:
[1] = test system: BDNF^Met/Met mice; test: Novelty-induced hypophagia after long-term fluoxetine in adult mice; type: in vivo; conditions: adult P60 BDNF^Met/Met mice; fluoxetine orally 18 mg/kg of body weight per day for 21 days
Description: A common treatment for depression and anxiety disorders in humans is administering serotonin reuptake inhibitors (SSRI's), for which one postulated mechanism of action involves increasing BDNF levels (R. S. Duman, L. M. Monteggia, Biol Psychiatry 59, 1116 (Jun. 15, 2006)). Adult P60 BDNF^Met/Met mice were treated orally with fluoxetine (18 mg/kg of body weight per day) or vehicle for 21 days before assessment in novelty-induced hypophagia. In this conflict test, mice are trained to approach a reward (sweetened milk) in their home cage and then placed in a novel brightly lit cage. The latency to approach and drink the sweetened milk is a measure of the anxiety-related behavior associated with this task (S. C. Dulawa, K. A. Holick, B. Gundersen, R. Hen, Neuropsychopharmacology 29, 1321 (July, 2004)).

[2] = test system: BDNF^Met mice; test: Elevated plus maze at P90 after early life fluoxetine (P21-P40); type: in vivo; conditions: fluoxetine 18 mg/kg per day via drinking water P21-P40, tested at P90
Source text: (§1) FIG. 9. Anxiety-related behavior after early life flouxetine in BDNF Val66Met mice in the elevated plus maze test. (A). Percentage time spent in the open arm (B) and percentage of open arm entries in the plus maze, as well as (C) total distance traveled in wildtype) WT and BDNF^Met/Met (Met/Met) mice treated with water (H2O) or with flouxetine (FLX) from P21-P40. All results are presented as a mean±SEM determined from analysis of 5 mice/genotype (*p<0.05), Student's t test.
(§2) The feasibility of these timed pharmacological studies was first assessed. To BDNFMet mice, chronic fluoxetine (18 mg/kg per day) was administered via the drinking water from P21 (post-weaning)-P40 (adolescence) (FIG. 8) for a duration of time established to produce increased BDNF levels and anti-anxiety effects in adult mice [Dulawa, S. C., Holick, K. A., Gundersen, B., and Hen, R. (2004). Effects of chronic fluoxetine in animal models of anxiety and depression. Neuropsychopharmacology 29, 1321-1330; Duman, R. S., and Monteggia, L. M. (2006). A neurotrophic model for stress-related mood disorders. Biol Psychiatry 59, 1116-1127].
(§3) Early-life blockade of the 5-HT transporter alters emotional behavior in adult mice. Science 306, 879-881], which was not observed by this P21-P40 timed treatment.

[3] = test system: wildtype mice; test: as above; type: in vivo; conditions: fluoxetine 18 mg/kg per day via drinking water P21-P40, tested at P90
Source text: as §1, §2, §3

[4] = test system: mice; conditions: fluoxetine treatment at P4-P21; Ansorge et al. 2004; cited from earlier work
[5] = test system: P60 BDNF^Met/Met mice; test: Two anxiety tests, response to chronic fluoxetine; type: in vivo
Source text: It was chosen to continue to use fluoxetine as it is the prototypic SSRI that has been established to increase BDNF levels, and for which a significant amount of clinical data on response to affective disorders.

CNCCC(Oc1ccc(C(F)(F)F)cc1)c1ccccc1 (centres unmarked) [fluoxetine]
latency to drink in the novel cage [1]: did not significantly decrease
anxiety-related behavior in the elevated plus maze test [2]: rescue of altered anxiety-related behavior
anxiety-related behaviors in the elevated plus maze test [3]: No effects were observed
anxiety-related behaviors [4]: increased anxiety-related behaviors
response to chronic fluoxetine as measured by two anxiety tests [5]: decreased response

Reference: patent publication US8853279B2, “Method for determining sensitivity or resistance to compounds that activate the brain serotonin system” (Cornell University, priority 2008, dated 2014)
